Test results: the supplement of paper PMC13380429

Assays:
Conditions in all cases: 72 h
[1] = test system: HepG2; test: relative viability EC50 (midpoint between 100% and the lowest measured viability); higher = less toxic
[2] = test system: Caco-2; test: as above
[3] = test system: Calu-3; test: as above
[4] = test system: Vero E6; test: as above
[5] = test system: U2OS; test: as above
[6] = test system: HepG2; test: drug sensitivity score (DSS) for viability; higher = more toxic; extreme values may be limits of the assay
[7] = test system: Caco-2; test: as above
[8] = test system: Calu-3; test: as above
[9] = test system: Vero E6; test: as above
[10] = test system: U2OS; test: as above
[11] = test system: HepG2; test: cell viability relative to DMSO; higher = less toxic
[12] = test system: Caco-2; test: as above
[13] = test system: Calu-3; test: as above
[14] = test system: Vero E6; test: as above
[15] = test system: U2OS; test: as above

SMILES | relative viability EC50 [1] | relative viability EC50 [2] | relative viability EC50 [3] | relative viability EC50 [4] | relative viability EC50 [5] | drug sensitivity score [6] | drug sensitivity score [7] | drug sensitivity score [8] | drug sensitivity score [9] | drug sensitivity score [10] | cell viability ([11]; 1 nM) | cell viability ([11]; 10 nM) | cell viability ([11]; 100 nM) | cell viability ([11]; 1000 nM) | cell viability ([11]; 10000 nM) | cell viability ([12]; 1 nM) | cell viability ([12]; 10 nM) | cell viability ([12]; 100 nM) | cell viability ([12]; 1000 nM) | cell viability ([12]; 10000 nM) | cell viability ([13]; 1 nM) | cell viability ([13]; 10 nM) | cell viability ([13]; 100 nM) | cell viability ([13]; 1000 nM) | cell viability ([13]; 10000 nM) | cell viability ([14]; 1 nM) | cell viability ([14]; 10 nM) | cell viability ([14]; 100 nM) | cell viability ([14]; 1000 nM) | cell viability ([14]; 10000 nM) | cell viability ([15]; 1 nM) | cell viability ([15]; 10 nM) | cell viability ([15]; 100 nM) | cell viability ([15]; 1000 nM) | cell viability ([15]; 10000 nM)
O=C(Oc1ccccc1)c1ccccc1O [phenyl-salicylate] | > 10 µM | > 10 µM | > 10 µM | > 10 µM | > 10 µM | 0 | 0 | 0 | 0 | 0 | 100% | 104% | 97.1% | 110% | 106% | 95.3% | 93.7% | 98.1% | 97.1% | 97.6% | 103% | 101% | 93.6% | 104% | 94.9% | 105% | 99.8% | 105% | 98.4% | 104% | 97.7% | 100% | 97.5% | 102% | 99.4%
NC(=O)CN1CCCC1=O [piracetam] | > 10 µM | > 10 µM | > 10 µM | > 10 µM | > 10 µM | 0 | 0 | 0 | 0 | 0 | 92.1% | 103% | 98% | 98.5% | 105% | 102% | 91.2% | 98.7% | 96.6% | 102% | 110% | 97.7% | 112% | 109% | 97.9% | 93.3% | 98.3% | 91.7% | 93.3% | 92% | 100% | 102% | 100% | 97.7% | 102%
CC12CCC(C(=O)N(CCCCN3CCN(c4ccccn4)CC3)C1=O)C2(C)C (stereo not given) [piricapiron] | > 10 µM | > 10 µM | > 10 µM | > 10 µM | > 10 µM | 0 | 0 | 0.6 | 0 | 0 | 106% | 101% | 101% | 102% | 97.6% | 87.3% | 99.7% | 96.5% | 98.1% | 93% | 100% | 105% | 101% | 93.2% | 85.9% | 97.2% | 99.8% | 101% | 93.5% | 104% | 101% | 103% | 99.1% | 101% | 95.6%
Cc1c(C(=O)NN2CCCCC2)nn(-c2ccc(Cl)cc2Cl)c1-c1ccc(Cl)cc1 [rimonabant] | > 10 µM | > 10 µM | > 10 µM | > 10 µM | > 10 µM | 0 | 0.8 | 0 | 0 | 0 | 97.6% | 94.1% | 105% | 103% | 88.3% | 98.7% | 91.3% | 97.7% | 90.5% | 81.1% | 101% | 93.6% | 89.1% | 96.8% | 99.2% | 92.4% | 95% | 88% | 93.5% | 101% | 95.6% | 95.8% | 98.1% | 95.4% | 92.7%
CCCN(CCc1cccs1)[C@H]1CCc2c(O)cccc2C1 [rotigotine] | > 10 µM | > 10 µM | > 10 µM | > 10 µM | > 10 µM | 0 | 0 | 0 | 0 | 0 | 94.1% | 91.7% | 87% | 107% | 102% | 98.7% | 95.7% | 103% | 101% | 103% | 105% | 100% | 103% | 100% | 99.6% | 93.4% | 97% | 90.1% | 98.5% | 98.7% | 95% | 98% | 98.4% | 97% | 96.6%
CC(=O)OCC(=O)NCCCOc1cccc(CN2CCCCC2)c1 [roxatidine-acetate] | > 10 µM | > 10 µM | > 10 µM | > 10 µM | > 10 µM | 0 | 0 | 0 | 0 | 0 | 94.3% | 107% | 95.5% | 95.4% | 91.1% | 103% | 91.5% | 97.1% | 101% | 93.9% | 107% | 111% | 103% | 99.5% | 99.8% | 106% | 106% | 99.1% | 103% | 99.2% | 96% | 95% | 98.7% | 93.9% | 97.6%
CN/C(=N\c1ccc(C2=NNC(=O)CC2C)cc1)NC#N (stereo not given) [siguazodan] | > 10 µM | > 10 µM | > 10 µM | > 10 µM | > 10 µM | 0 | 0 | 0 | 0 | 0 | 114% | 91.1% | 104% | 107% | 105% | 105% | 97.2% | 97.2% | 96.6% | 90.6% | 102% | 100% | 98.9% | 102% | 98.6% | 103% | 104% | 104% | 98.9% | 105% | 103% | 103% | 97.6% | 105% | 99.7%
O=NO [sodium-nitrite] | > 10 µM | > 10 µM | > 10 µM | > 10 µM | > 10 µM | 0 | 0 | 0 | 0 | 0 | 105% | 102% | 97.4% | 98% | 101% | 87.7% | 93.5% | 94% | 92.3% | 97.3% | 94.3% | 100% | 102% | 94.8% | 91.8% | 106% | 113% | 95.2% | 103% | 99.2% | 95.4% | 97.1% | 100% | 94.2% | 97.4%
C[C@@H]1CN(c2c(F)c(N)c3c(=O)c(C(=O)O)cn(C4CC4)c3c2F)C[C@H](C)N1 [sparfloxacin] | > 10 µM | > 10 µM | > 10 µM | > 10 µM | > 10 µM | 0 | 0 | 0 | 0 | 0 | 110% | 98.6% | 111% | 94.7% | 92.5% | 96.3% | 101% | 95.1% | 93.4% | 98% | 97.6% | 93% | 106% | 110% | 97.5% | 98.6% | 103% | 103% | 98.6% | 96% | 101% | 102% | 95.9% | 101% | 99%
CC(=O)S[C@@H]1CC2=CC(=O)CC[C@]2(C)[C@H]2CC[C@@]3(C)[C@@H](CC[C@@]34CCC(=O)O4)[C@H]12 [spironolactone] | > 10 µM | > 10 µM | > 10 µM | > 10 µM | > 10 µM | 0 | 0 | 0 | 0 | 0 | 104% | 99.7% | 110% | 107% | 107% | 95.1% | 96.7% | 100% | 99.6% | 102% | 90.7% | 95.4% | 99.1% | 94.5% | 102% | 101% | 97.2% | 97.1% | 88.7% | 102% | 92.9% | 98.6% | 97.4% | 101% | 102%
C[N+](C)(C)CCOC(=O)CCC(=O)OCC[N+](C)(C)C [succinylcholine-chloride] | > 10 µM | > 10 µM | > 10 µM | > 10 µM | > 10 µM | 0 | 0 | 0 | 0 | 0 | 106% | 97.2% | 106% | 93.3% | 102% | 103% | 97.3% | 99.9% | 97.2% | 104% | 101% | 103% | 101% | 94.8% | 106% | 108% | 95.8% | 102% | 89.7% | 102% | 98.7% | 103% | 101% | 101% | 102%
Cc1ccccc1/N=N/c1ccc(/N=N/c2c(O)ccc3ccccc23)c(C)c1 [sudan-IV] | > 10 µM | > 10 µM | > 10 µM | > 10 µM | > 10 µM | 2.2 | 0 | 0 | 0 | 0 | 96.3% | 111% | 104% | 81.2% | 92.7% | 96.3% | 119% | 113% | 120% | 94.5% | 98.2% | 107% | 96.6% | 107% | 95.2% | 104% | 100% | 104% | 110% | 87.4% | 97.8% | 102% | 93.3% | 95.3% | 90.5%
